Like-named read-outs stand apart in the source and are kept apart here. Bounds are passed on as bounds.

The subject of one assay is human neutrophils. As to the kind of experiment: Inhibition of superoxide (O₂⁻) generation from neutrophils. The assay is classed as cell-based. The conditions noted are these: Neutrophil. An excerpt:
(§1) The one assay provides IC₅₀'s for the inhibition of superoxide generation. DeChatelet, L. R., Shirley, P. S. and Johnson, R. B. 1976. Effect of phorbol myristate acetate on the oxidative metabolism of human polymorphonuclear leukocytes. Blood 47:545-554. The other assay is a generally recognized in vivo assay to show activity useful for treating ARDS. The in vivo assay is described in J. Clin. Invest., Vol. 69, May 1982, pp 1126-1135.
The activity for each of these compounds as numbered above is expressed as IC₅₀'s for the inhibition of superoxide generation and is shown in the following Table A: TABLE A
Further, activity for compounds of examples noted in the following Table A₁ likewise show IC₅₀'s for the inhibition of superoxide generation. TABLE A1

For assay [1], the system named is CVF Induced Lung Injury in Rats. Description: Inhibition of cobra venom factor (CVF) induced lung injury in rats (in vivo ARDS assay). Conditions: for Lung Injury (x ± SEM): saline control 0.20 ± 0.01, CVF alone 1.45 ± 0.19.
From the text: as §1
Accordingly, the compounds of the Formula II are now found to be particularly useful for treating ARDS shown by the inhibition of cobra venom factor (CVF) induced lung injury in rats using the Compound No. 1 above in the in vivo assay shown as follows in Table B: TABLE B

[2] abbreviates: Table A, read-out: IC₅₀ (µM) Inhibition of O₂⁻ generation from neutrophils.
Setting [3] is: Table A1, read-out: IC₅₀ (µM) Inhibition of O₂⁻ generation from neutrophils.
Where [4] appears, read: given intravenously (20 mg/kg) 10 minutes before intravenous injection of CVF.
The mark [5] stands for this setting: injected intraperitoneally (20 mg/kg) 20 minutes before CVF.

For `COc1ccc2c(OC(C)C)c(C(=O)Nc3nnn[nH]3)oc2c1` [compound 4, 6-Methoxy-3-(1-methylethoxy)-N-1H-tetrazol-5-yl-2-benzofurancarboxamide], in the assay on human neutrophils (setting [2]), the IC50 worked out at 75 µM.
As to `CC(C)Oc1c(C(=O)Nc2nnn[nH]2)sc2ccc(O)cc12` [Example C20A, 3-(1-Methylethoxy)-5-hydroxy-N-1H-tetrazol-5-yl-benzo[b]-thiophene-2-carboxamide], the IC50 with human neutrophils (setting [3]) turned out to be 48 µM.
On the same count and under the same terms, the figure for `COc1cc2sc(C(=O)Nc3nnn[nH]3)c(Oc3ccccc3)c2cc1OC` [Example C21] is 6 µM.
For `COc1ccc2c(OC(C)C)c(C(=O)Nc3nnn[nH]3)sc2c1` [compound 2, 6-Methoxy-3-(1-methylethoxy)-N-1H-tetrazol-5-yl-benzo[b]thiophene-2-carboxamide], the IC50 with human neutrophils (setting [2]) came to 37 µM.
With `COc1ccc2sc(C(=O)Nc3nnn[nH]3)c(OC(C)C)c2c1` [Compound No. 1, 5-Methoxy-3-(1-methylethoxy)-N-1H-tetrazol-5-yl-benzo[b]thiophene-2-carboxamide], the IC50 in the assay with human neutrophils (setting [2]) came to 19 µM. The “Protection % Inhibition of Injury” value in assay [1] (setting [4]) is on record as 76%; in assay [1] (setting [5]), 58%. Further, the “Lung Injury (x ± SEM)” value in assay [1] (setting [4]) came out at 0.48 ± 0.08; in assay [1] (setting [5]), 0.73 ± 0.06.
As to `COc1ccc2sc(C(=O)Nc3nnn[nH]3)c(OCc3ccccc3)c2c1` [compound 5, 3-Benzyloxy-5-methoxy-N-1H-tetrazol-5-yl-benzo[b]thiophene-2-carboxamide], the IC50 in the assay on human neutrophils (setting [2]) was 23 µM.
For `COc1ccc2c(Oc3ccccc3)c(C(=O)Nc3nnn[nH]3)sc2c1` [Example C21D, 6-Methoxy-3-phenoxy-N-1H-tetrazol-5-yl-benzo[b]thiophene-2-carboxamide], the IC50 in the assay with human neutrophils (setting [3]) is above 100 µM.
`COc1cc2sc(C(=O)Nc3nnn[nH]3)c(OCc3ccccc3)c2cc1OC` [Example C21A, 5,6-Dimethoxy-3-(phenylmethoxy)-N-1H-tetrazol-5-yl-benzo[b]thiophene-2-carboxamide]: in the assay with human neutrophils (setting [3]), the IC50 is 40 µM.
For `COc1ccc2sc(C(=O)Nc3nnn[nH]3)c(SC(C)C)c2c1` [compound 3, 5-Methoxy-3-[(1-methylethyl)thio-N-1Htetrazol-5-yl]-benzo[b]thiophene-2-carboxamide], the IC50 in the assay on human neutrophils (setting [2]) came to 23 µM.
As to `COc1ccc2sc(C(=O)Nc3nnn[nH]3)c(Oc3ccccc3)c2c1` [compound 6, 5-Methoxy-3-phenoxy-N-1H-tetrazol-5-yl-benzo[b]thiophene-2-carboxamide], the IC50 in the assay with human neutrophils (setting [2]) was determined as 10 µM.

The record behind these values is patent EP0299457A2, “Novel benzothiophenes having antiallergic activity and both novel and other selected benzothiophenes having activity for treating acute respiratory distress syndrome” (WARNER-LAMBERT COMPANY, priority 1987, dated 1989).
